Source: PubChem BioAssay AID256 (DTP/NCI, 2004)
“And” between values parts separate entries of the source, which are not always exact repeats. Equal entries are not always repeated. Toxic doses and inconclusive results are not listed.

Tested on: CD2F1 mice, L1210 leukemia ip, survival T/C
Assay: NCI In Vivo Anticancer Drug Screen. Data for tumor model L1210 Leukemia (intraperitoneal) in CD2F1 (CDF1) mice
Conditions: higher = longer survival
Procedure, shortened: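 Transplantable tumor in mice; compound-treated vs vehicle-treated groups. Read-out = treated/control ratio of the measured endpoint.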

[1] = endpoint: mean survival time, dose: 50.0 mg/kg/injection, schedule: Q01DX009 (ip), vehicle: saline with Tween-80
[2] = endpoint: mean survival time, dose: 100.0 mg/kg/injection, schedule: Q01DX009 (ip), vehicle: saline with Tween-80
[3] = endpoint: mean survival time, dose: 200.0 mg/kg/injection, schedule: Q01DX009 (ip), vehicle: saline with Tween-80
[4] = endpoint: mean survival time, dose: 400.0 mg/kg/injection, schedule: Q01DX009 (ip), vehicle: saline with Tween-80
[5] = endpoint: mean survival time, dose: 100.0 mg/kg/injection, schedule: Q01DX001 (ip), vehicle: saline with Tween-80
[6] = endpoint: mean survival time, dose: 200.0 mg/kg/injection, schedule: Q01DX001 (ip), vehicle: saline with Tween-80
[7] = endpoint: mean survival time, dose: 400.0 mg/kg/injection, schedule: Q01DX001 (ip), vehicle: saline with Tween-80
[8] = endpoint: mean survival time, dose: 100.0 mg/kg/injection, schedule: Q04DX002 (ip), vehicle: saline with Tween-80
[9] = endpoint: mean survival time, dose: 200.0 mg/kg/injection, schedule: Q04DX002 (ip), vehicle: saline with Tween-80

## C#CCNC1=C(C)C(=O)C2=C(C1=O)[C@H](COC(N)=O)[C@]1(OC)[C@@H]3N[C@@H]3CN21
endpoint: mean survival time, dose: 1.5 mg/kg/injection, schedule: Q01DX001 (ip), vehicle: distilled water + Tween-80
  T/C: 112 % of control
endpoint: mean survival time, dose: 3.0 mg/kg/injection, schedule: Q01DX001 (ip), vehicle: distilled water + Tween-80
  T/C: 120 % of control and 102 % of control
endpoint: mean survival time, dose: 6.0 mg/kg/injection, schedule: Q01DX001 (ip), vehicle: distilled water + Tween-80
  T/C: 110 % of control
endpoint: mean survival time, dose: 24.0 mg/kg/injection, schedule: Q01DX001 (ip), vehicle: distilled water + Tween-80
  T/C: 186 % of control
endpoint: mean survival time, dose: 48.0 mg/kg/injection, schedule: Q01DX001 (ip), vehicle: distilled water + Tween-80
  T/C: 87 % of control
endpoint: median survival time, dose: 6.0 mg/kg/injection, schedule: Q01DX009 (ip), vehicle: distilled water + Tween-80
  T/C: 166 % of control
endpoint: median survival time, dose: 6.25 mg/kg/injection, schedule: Q01DX009 (ip), vehicle: distilled water + Tween-80
  T/C: 178 % of control
endpoint: median survival time, dose: 12.5 mg/kg/injection, schedule: Q01DX009 (ip), vehicle: distilled water + Tween-80
  T/C: 101 % of control
endpoint: median survival time, dose: 25.0 mg/kg/injection, schedule: Q01DX009 (ip), vehicle: distilled water + Tween-80
  T/C: 92 % of control

## O=C(Nc1ccc(F)cc1)c1ccc(C(=O)Nc2ccc(F)cc2)cc1
endpoint: mean survival time, dose: 100.0 mg/kg/injection, schedule: Q04DX003 (ip), vehicle: saline with Tween-80
  T/C: 100 % of control
endpoint: mean survival time, dose: 400.0 mg/kg/injection, schedule: Q04DX003 (ip), vehicle: saline with Tween-80
  T/C: 94 % of control

## Cn1nc(-c2ccccc2)nc1[N+](=O)[O-]
endpoint: mean survival time, dose: 12.5 mg/kg/injection, schedule: Q01DX009 (ip), vehicle: saline with Tween-80
  T/C: 90 % of control and 103 % of control
endpoint: mean survival time, dose: 25.0 mg/kg/injection, schedule: Q01DX009 (ip), vehicle: saline with Tween-80
  T/C: 97 % of control
[1]
  T/C: 103 % of control and 106 % of control
[2]
  T/C: 121 % of control and 100 % of control

## N#C/C(=C\c1ccc(-c2ccccc2)cc1)c1ccc(Cl)cc1
endpoint: mean survival time, dose: 200.0 mg/kg/injection, schedule: Q04DX003 (ip), vehicle: saline with Tween-80
  T/C: 87 % of control

## CCCCOc1ccccc1NC(=O)CCl
[2]
  T/C: 97 % of control
[3]
  T/C: 92 % of control
[4]
  T/C: 95 % of control

## Nc1nc2c(c(=O)[nH]1)N(CCCCCO)C(CNc1ccc(C(=O)NC(CCC(=O)O)C(=O)O)cc1)CN2 (stereo not drawn)
endpoint: mean survival time, dose: 100.0 mg/kg/injection, schedule: Q01DX001 (ip), vehicle: saline
  T/C: 97 % of control
endpoint: mean survival time, dose: 200.0 mg/kg/injection, schedule: Q01DX001 (ip), vehicle: saline
  T/C: 103 % of control
endpoint: mean survival time, dose: 400.0 mg/kg/injection, schedule: Q01DX001 (ip), vehicle: saline
  T/C: 97 % of control

## CC1(C)OC2CC3CC(OC3=O)C2O1 (stereo not drawn)
[5]
  T/C: 107 % of control
[6]
  T/C: 97 % of control
[7]
  T/C: 107 % of control

## CCC12CCC(=O)C=C1CCCC2=O (stereo not drawn)
endpoint: mean survival time, dose: 100.0 mg/kg/injection, schedule: Q04DX003 (ip), vehicle: saline sonified
  T/C: 95 % of control

## Nc1nc(-c2ccccc2)nc2[nH]ncc12
[5]
  T/C: 95 % of control
[6]
  T/C: 95 % of control
[7]
  T/C: 89 % of control

## Cc1ccc(NC(=O)OCCOc2ccc([N+](=O)[O-])cc2)cc1C
[1]
  T/C: 108 % of control
[2]
  T/C: 92 % of control
[3]
  T/C: 92 % of control

## Cc1nc(C#N)c(N)nc1Cl
endpoint: mean survival time, dose: 100.0 mg/kg/injection, schedule: Q04DX002 (ip), vehicle: Klucel (hydroxypropylcellulose) (HPC)
  T/C: 109 % of control
endpoint: mean survival time, dose: 200.0 mg/kg/injection, schedule: Q04DX002 (ip), vehicle: Klucel (hydroxypropylcellulose) (HPC)
  T/C: 91 % of control
endpoint: mean survival time, dose: 400.0 mg/kg/injection, schedule: Q04DX002 (ip), vehicle: Klucel (hydroxypropylcellulose) (HPC)
  T/C: 109 % of control

## O=C(c1ccccc1CO)N1CCOCC1
endpoint: mean survival time, dose: 12.5 mg/kg/injection, schedule: Q04DX002 (ip), vehicle: saline
  T/C: 98 % of control
endpoint: mean survival time, dose: 25.0 mg/kg/injection, schedule: Q04DX002 (ip), vehicle: saline
  T/C: 94 % of control
endpoint: mean survival time, dose: 50.0 mg/kg/injection, schedule: Q04DX002 (ip), vehicle: saline
  T/C: 94 % of control

## Cc1ccc(S(=O)(=O)NN=C2CC3CCC(C2)S3)cc1
endpoint: mean survival time, dose: 37.5 mg/kg/injection, schedule: Q01DX001 (ip), vehicle: saline with Tween-80
  T/C: 101 % of control
endpoint: mean survival time, dose: 75.0 mg/kg/injection, schedule: Q01DX001 (ip), vehicle: saline with Tween-80
  T/C: 104 % of control
endpoint: mean survival time, dose: 150.0 mg/kg/injection, schedule: Q01DX001 (ip), vehicle: saline with Tween-80
  T/C: 106 % of control

## [Au].[NH-]CC[NH-].[NH-]CC[NH-]
endpoint: mean survival time, dose: 6.25 mg/kg/injection, schedule: Q01DX001 (ip), vehicle: water
  T/C: 89 % of control
endpoint: mean survival time, dose: 6.25 mg/kg/injection, schedule: Q04DX003 (ip), vehicle: water
  T/C: 98 % of control
endpoint: mean survival time, dose: 12.5 mg/kg/injection, schedule: Q01DX001 (ip), vehicle: water
  T/C: 94 % of control
endpoint: mean survival time, dose: 12.5 mg/kg/injection, schedule: Q04DX003 (ip), vehicle: water
  T/C: 89 % of control
endpoint: mean survival time, dose: 25.0 mg/kg/injection, schedule: Q01DX001 (ip), vehicle: water
  T/C: 101 % of control

## CC(=O)OCC1OC(N2C(=O)/C(=C/c3ccc([N+](=O)[O-])cc3)SC2=S)C(OC(C)=O)C(OC(C)=O)C1OC(C)=O (stereo not drawn)
endpoint: mean survival time, dose: 0.78 mg/kg/injection, schedule: Q01DX005 (ip), vehicle: distilled water + Tween-80
  T/C: 96 % of control
endpoint: mean survival time, dose: 1.56 mg/kg/injection, schedule: Q01DX005 (ip), vehicle: distilled water + Tween-80
  T/C: 93 % of control
endpoint: mean survival time, dose: 3.13 mg/kg/injection, schedule: Q01DX005 (ip), vehicle: distilled water + Tween-80
  T/C: 93 % of control
endpoint: mean survival time, dose: 6.25 mg/kg/injection, schedule: Q01DX005 (ip), vehicle: distilled water + Tween-80
  T/C: 90 % of control
endpoint: mean survival time, dose: 12.5 mg/kg/injection, schedule: Q01DX005 (ip), vehicle: distilled water + Tween-80
  T/C: 93 % of control

## CN(C)C(=O)C1C2C=CC(CCC2)C1C(=O)N(C)C (stereo not drawn)
endpoint: mean survival time, dose: 100.0 mg/kg/injection, schedule: Q04DX002 (ip), vehicle: saline
  T/C: 91 % of control
endpoint: mean survival time, dose: 200.0 mg/kg/injection, schedule: Q04DX002 (ip), vehicle: saline
  T/C: 88 % of control
endpoint: mean survival time, dose: 400.0 mg/kg/injection, schedule: Q04DX002 (ip), vehicle: saline
  T/C: 91 % of control

## O=C1OC(=O)C2C1CC1C(=O)OC(=O)C12 (stereo not drawn)
endpoint: mean survival time, dose: 50.0 mg/kg/injection, schedule: Q04DX003 (ip), vehicle: Klucel (hydroxypropylcellulose) (HPC)
  T/C: 97 % of control
endpoint: mean survival time, dose: 100.0 mg/kg/injection, schedule: Q04DX003 (ip), vehicle: Klucel (hydroxypropylcellulose) (HPC)
  T/C: 100 % of control
endpoint: mean survival time, dose: 200.0 mg/kg/injection, schedule: Q04DX003 (ip), vehicle: Klucel (hydroxypropylcellulose) (HPC)
  T/C: 96 % of control

## CCCCCCCCCCCCCCCCCCN (tested in a mixture with another compound)
[8]
  T/C: 98 % of control
[9]
  T/C: 98 % of control

## CC(C)OC(=O)Nc1cc(F)c(F)cc1F
[2]
  T/C: 103 % of control
[3]
  T/C: 103 % of control
[4]
  T/C: 103 % of control

## Cc1ccc(S(=O)(=O)NC(=O)C(Cc2ccccc2)c2ccccc2)cc1 (stereo not drawn)
endpoint: mean survival time, dose: 75.0 mg/kg/injection, schedule: Q01DX001 (ip), vehicle: other
  T/C: 96 % of control
endpoint: mean survival time, dose: 150.0 mg/kg/injection, schedule: Q01DX001 (ip), vehicle: other
  T/C: 98 % of control
endpoint: mean survival time, dose: 300.0 mg/kg/injection, schedule: Q01DX001 (ip), vehicle: other
  T/C: 96 % of control

## Cn1c(=O)c2[nH]c(Cl)nc2n(C)c1=O
endpoint: mean survival time, dose: 12.5 mg/kg/injection, schedule: Q01DX005 (ip), vehicle: water
  T/C: 92 % of control
endpoint: mean survival time, dose: 25.0 mg/kg/injection, schedule: Q01DX005 (ip), vehicle: water
  T/C: 93 % of control
endpoint: mean survival time, dose: 50.0 mg/kg/injection, schedule: Q01DX005 (ip), vehicle: water
  T/C: 103 % of control
endpoint: mean survival time, dose: 100.0 mg/kg/injection, schedule: Q01DX005 (ip), vehicle: water
  T/C: 87 % of control

## CC(=O)CCS(=O)(=O)O
[5]
  T/C: 92 % of control
[6]
  T/C: 95 % of control
[7]
  T/C: 88 % of control

## Cc1cccc(Cl)c1NC1=NCCO1
endpoint: mean survival time, dose: 6.25 mg/kg/injection, schedule: Q04DX003 (ip), vehicle: saline with Tween-80
  T/C: 100 % of control
endpoint: mean survival time, dose: 12.5 mg/kg/injection, schedule: Q04DX003 (ip), vehicle: saline with Tween-80
  T/C: 100 % of control
endpoint: mean survival time, dose: 25.0 mg/kg/injection, schedule: Q04DX003 (ip), vehicle: saline with Tween-80
  T/C: 111 % of control

## COC(=O)C(OC)c1ccc2ccccc2c1 (stereo not drawn)
[8]
  T/C: 98 % of control
[9]
  T/C: 98 % of control
endpoint: mean survival time, dose: 400.0 mg/kg/injection, schedule: Q04DX002 (ip), vehicle: saline with Tween-80
  T/C: 102 % of control
